The text below walks through data of patent publication US12378190B2, “Two-component coating system” (COVESTRO (NETHERLANDS) B.V., priority 2020, dated 2025).

Series [1] relates to Rtkn-GFP mouse embryonic stem (mES) reporter cell line. In words: ToxTracker genotoxicity assay, Rtkn-GFP reporter induction. The protocol: A 2 L four-necked flask equipped with a thermometer and overhead stirrer was charged with sodium lauryl sulphate (30% solids in water, 18.6 grams of solution) and demineralized water (711 grams). The reactor phase was placed under N2 atmosphere and heated to 82° C. A mixture of demineralized water (112 grams), sodium lauryl sulphate (30% solids in water, 37.2 grams of solution), methyl methacrylate (209.3 grams), n-butyl acrylate (453.56 grams) and methacrylic acid (34.88 grams) was placed in a large feeding funnel and emulsified with an overhead stirrer (monomer feed). Ammonium persulphate (1.75 grams) was dissolved in demineralized water (89.61 grams) and placed in a small feeding funnel (initiator feed). Ammonium persulphate (1.75 grams) was dissolved in demineralized water (10.5 grams), and this solution was added to the reactor phase. Immediately afterwards, 5% by volume of the monomer feed was added to the reactor phase. The reaction mixture then exothermed to 85° C. and was kept at 85° C. for 5 minutes. Then, the residual monomer feed and the initiator feed were fed to the reaction mixture over 90 minutes, maintaining a temperature of 85° C. After completion of the feeds, the monomer feed funnel was rinsed with demineralized water (18.9 grams) and reaction temperature maintained at 85° C. for 45 minutes. Subsequently, the mixture was cooled to room temperature and brought to pH=7.2 with ammonia solution (6.25 wt. % in demineralized water), and brought to 40% solids with further demineralized water. […] This methodology uses a two step-approach. […] Metabolic was evaluated by addition of S9 liver extract. […] Only GFP expression in intact single cells is determined. […] Components and Abbreviations Used: Dimethylformamide (CAS No. 68-12-2) was obtained from Acros Organics (a division of Thermo Fisher Scientific). […] IPDI (5-isocyanato-1-(isocyanatomethyl)-1,3,3-trimethylcyclohexane, Desmodur® I, isophorone diisocyanate, CAS No. 4098-71-9) was obtained from Covestro. Polyethylene Glycol Monomethyl Ether (CAS No. 9004-74-4) with a number average molecular weight of 1000 Da was obtained from Tokyo Chemical Industry Co., Ltd. Vestanat® T 1890/100, an isophorone diisocyanate based isocyanurate (CAS No. 67873-91-0) was obtained from Evonik. Desmodur® N3600 was obtained from Covestro. 1-methoxy-2-propanol acetate (propylene glycol methyl ether acetate, CAS No. 108-65-6) was obtained from Shell Chemicals. 1-(2-hydroxyethyl)ethyleneimine) (CAS No. 1072-52-2) was obtained from Tokyo Chemical Industry Co., Ltd. Jeffamine® XTJ-436 (CAS No. 118270-87-4) was obtained from Huntsman Bismuth neodecanoate (CAS No. 34364-26-6) obtained from TIB chemicals AG (Mannheim, Germany). Hydrazine (16% solution in water, CAS No. 302-01-2) was obtained from Honeywell. Dimethylol propionic acid (DMPA, CAS No. 4767-03-7) was obtained from Perstop Polyols. Triethylamine (TEA, CAS No. 121-44-8) was obtained from Arkema 1-propanol (CAS No. 71-23-8) was obtained from Sigma-Aldrich. Tin 2-ethylhexanoate (CAS No. 301-10-0) was obtained from Sigma-Aldrich. Dibutyltindilaurate (CAS No. 77-58-7) was obtained from Sigma-Aldrich. Tegomer® D3403 was obtained from Evonik. Polypropyleneglycol with a number average molecular weight of 1000 Da and with a number average molecular weight of 2000 Da was obtained from BASF. 3-Methyl-1-phenyl-2-phospholene-1-oxide (CAS No. 707-61-9) was obtained from Sigma-Aldrich. 1-Butanol (CAS No. 71-36-3) was obtained from Sigma-Aldrich. Sodium lauryl sulphate (30% solution in water, CAS No. 73296-89-6) was obtained from BASF. Methyl methacrylate (CAS No. 80-62-6) was obtained from Lucite Int. n-Butyl acrylate (CAS No. 141-32-2) was obtained from Dow Chemical. Methacrylic acid (CAS No. 79-41-4) was obtained from Lucite Int. Ammonium persulphate (CAS No. 7727-54-0) was obtained from United Initiators. Ammonia (25% solution in water, CAS No. 1336-21-6) was obtained from Merck

Series [2] concerns Bscl2-GFP and Rtkn-GFP mES reporter cell lines. In words: ToxTracker genotoxicity assay, overall conclusion. To be noted: positive: >=2-fold induction; weakly positive: >1.5 and <2-fold; negative: <=[…] at 10, 25 and 50% cytotoxicity, with and without S9. The protocol:
A 2 L four-necked flask equipped with a thermometer and overhead stirrer was charged with sodium lauryl sulphate (30% solids in water, 18.6 grams of solution) and demineralized water (711 grams). The reactor phase was placed under N2 atmosphere and heated to 82° C. A mixture of demineralized water (112 grams), sodium lauryl sulphate (30% solids in water, 37.2 grams of solution), methyl methacrylate (209.3 grams), n-butyl acrylate (453.56 grams) and methacrylic acid (34.88 grams) was placed in a large feeding funnel and emulsified with an overhead stirrer (monomer feed). Ammonium persulphate (1.75 grams) was dissolved in demineralized water (89.61 grams) and placed in a small feeding funnel (initiator feed). Ammonium persulphate (1.75 grams) was dissolved in demineralized water (10.5 grams), and this solution was added to the reactor phase. Immediately afterwards, 5% by volume of the monomer feed was added to the reactor phase. The reaction mixture then exothermed to 85° C. and was kept at 85° C. for 5 minutes. Then, the residual monomer feed and the initiator feed were fed to the reaction mixture over 90 minutes, maintaining a temperature of 85° C. […] Metabolic was evaluated by addition of S9 liver extract. […] Only GFP expression in intact single cells is determined. […]

Take `O=C(NCCCCCCn1c(=O)n(CCCCCCNC(=O)OCCN2CC2)c(=O)n(CCCCCCNC(=O)OCCN2CC2)c1=O)OCCN1CC1` [compound 2]: the Rtkn induction level in series [1] (with S9 rat liver extract, 3 h exposure and 24 h recovery, at 10% cytotoxicity) is on record as 2.0 fold; in series [1] (with S9 rat liver extract, 3 h exposure and 24 h recovery, at 25% cytotoxicity) it was 3.4 fold; in series [1] (with S9 rat liver extract, 3 h exposure and 24 h recovery, at 50% cytotoxicity), 3.0 fold; in series [1] (without S9 rat liver extract, 24 h exposure, at 10% cytotoxicity) it was 1.7 fold; in series [1] (without S9 rat liver extract, 24 h exposure, at 25% cytotoxicity), 2.4 fold; in series [1] (without S9 rat liver extract, 24 h exposure, at 50% cytotoxicity), 2.8 fold. In addition, in series [2], the Genotoxicity test conclusion result is listed as “genotoxic”.

As to `O=C(CCN1CC1)OCC(CO)(COC(=O)CCN1CC1)COC(=O)CCN1CC1` [Comparative Example 3, pentaerythritol tris(3-(1-aziridinyl)propionate)], in series [2], the Genotoxicity test conclusion entry was “genotoxic”.
